Here are results for 18 compounds from PubChem BioAssay AID256 (DTP/NCI, 2004).

The structures appear in SMILES notation. Values joined by “and” are separate entries in the source; they are usually repeats but may differ in a detail not shown here. Equal entries are not always repeated. Inconclusive results and toxic doses are left out.

The subject of this assay is CD2F1 mice, L1210 leukemia ip, survival T/C. The assay can be described thus: NCI In Vivo Anticancer Drug Screen. Data for tumor model L1210 Leukemia (intraperitoneal) in CD2F1 (CDF1) mice. As to conditions: higher = longer survival. The method in brief: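 Ratio T/C, where T is the treated-group value and C the vehicle-dosed control value, from mice implanted with a transplantable tumor.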

[1] abbreviates: endpoint: mean survival time, dose: 100.0 mg/kg/injection, schedule: Q04DX002 (ip), vehicle: saline with Tween-80.
The mark [2] stands for this setting: endpoint: mean survival time, dose: 200.0 mg/kg/injection, schedule: Q04DX002 (ip), vehicle: saline with Tween-80.
[3] abbreviates: endpoint: mean survival time, dose: 400.0 mg/kg/injection, schedule: Q04DX002 (ip), vehicle: saline with Tween-80.
The mark [4] stands for this setting: endpoint: mean survival time, dose: 100.0 mg/kg/injection, schedule: Q04DX003 (ip), vehicle: saline with Tween-80.
The mark [5] stands for this setting: endpoint: mean survival time, dose: 200.0 mg/kg/injection, schedule: Q04DX003 (ip), vehicle: saline with Tween-80.
[6] abbreviates: endpoint: mean survival time, dose: 400.0 mg/kg/injection, schedule: Q04DX003 (ip), vehicle: saline with Tween-80.
The mark [7] stands for this setting: endpoint: mean survival time, dose: 50.0 mg/kg/injection, schedule: Q01DX009 (ip), vehicle: saline with Tween-80.
Where [8] appears, read: endpoint: mean survival time, dose: 100.0 mg/kg/injection, schedule: Q01DX009 (ip), vehicle: saline with Tween-80.
[9] abbreviates: endpoint: mean survival time, dose: 200.0 mg/kg/injection, schedule: Q01DX009 (ip), vehicle: saline with Tween-80.
The mark [10] stands for this setting: endpoint: mean survival time, dose: 100.0 mg/kg/injection, schedule: Q01DX001 (ip), vehicle: saline with Tween-80.
Where [11] appears, read: endpoint: mean survival time, dose: 50.0 mg/kg/injection, schedule: Q01DX009 (ip), vehicle: saline.
Setting [12] is: endpoint: mean survival time, dose: 100.0 mg/kg/injection, schedule: Q01DX009 (ip), vehicle: saline.
The mark [13] stands for this setting: endpoint: mean survival time, dose: 200.0 mg/kg/injection, schedule: Q01DX009 (ip), vehicle: saline.

Consider `CN(C=O)C(C(=O)Nc1cccc2c(OC(=O)C(N(C)C=O)(N(C)C=O)N(C)C=O)c(N=Nc3ccc(S(=O)(=O)Nc4nccs4)cc3)cc(N=Nc3ccc(S(=O)(=O)Nc4nccs4)cc3)c12)(N(C)C=O)N(C)C=O` (tested in a mixture with another compound), for which the T/C (endpoint: median survival time, dose: 12.0 mg/kg/injection, schedule: Q01DX009 (ip), vehicle: saline with Tween-80) was 95 % of control; the T/C (endpoint: median survival time, dose: 25.0 mg/kg/injection, schedule: Q01DX009 (ip), vehicle: saline with Tween-80) was 106 % of control; the T/C (endpoint: median survival time, dose: 50.0 mg/kg/injection, schedule: Q01DX009 (ip), vehicle: saline with Tween-80) was 95 % of control; the T/C (endpoint: median survival time, dose: 100.0 mg/kg/injection, schedule: Q01DX009 (ip), vehicle: saline with Tween-80) is 94 % of control; the T/C (endpoint: median survival time, dose: 200.0 mg/kg/injection, schedule: Q01DX009 (ip), vehicle: saline with Tween-80) was 97 % of control; the T/C (endpoint: median survival time, dose: 400.0 mg/kg/injection, schedule: Q01DX009 (ip), vehicle: saline with Tween-80) is 106 % of control.
Take `Nc1c(Br)cc(Br)c2c1CCC2`: the T/C is 94 % of control under setting [1], 105 % of control under setting [2] and 94 % of control under setting [3].
Consider `O=C1c2ccccc2C(=O)N1C(=S)N1C(=O)c2ccccc2C1=O`, for which the T/C reads like this: under setting [1], 96 % of control; under setting [2], 92 % of control; under setting [3], 92 % of control.
In the case of `COc1cc(OC)c(OC)cc1Br`, the T/C is 101 % of control (endpoint: mean survival time, dose: 100.0 mg/kg/injection, schedule: Q01DX009 (ip), vehicle: saline sonified); 102 % of control under setting [4]; 97 % of control (endpoint: mean survival time, dose: 200.0 mg/kg/injection, schedule: Q01DX009 (ip), vehicle: saline sonified); 102 % of control under setting [5]; 97 % of control (endpoint: mean survival time, dose: 400.0 mg/kg/injection, schedule: Q01DX009 (ip), vehicle: saline sonified); 102 % of control under setting [6].
Take `Cc1ccccc1SCCC(=O)O`: the T/C reads like this: (endpoint: mean survival time, dose: 12.5 mg/kg/injection, schedule: Q01DX009 (ip), vehicle: saline with Tween-80) 101 % of control; (endpoint: mean survival time, dose: 25.0 mg/kg/injection, schedule: Q01DX009 (ip), vehicle: saline with Tween-80) 102 % of control; under setting [7], 101 % of control; under setting [8], 97 % of control.
`CCOc1cccc(Cl)n1`: the T/C runs as follows: under setting [8], 94 % of control; under setting [4], 101 % of control; under setting [9], 102 % of control; under setting [5], 98 % of control; under setting [6], 98 % of control.
In the case of `CSCCC(C)(C)C`, where the note is “endpoint: mean survival time, dose: 75.0 mg/kg/injection, schedule: Q01DX001 (ip), vehicle: saline”, the T/C was 103 % of control.
For `COc1cc(OC)c(OC)cc1/C=C\c1ccnc2ccccc12`, the T/C by setting is: (endpoint: mean survival time, dose: 12.5 mg/kg/injection, schedule: Q01DX009 (ip), vehicle: Klucel (hydroxypropylcellulose) (HPC)) 96 % of control; (endpoint: mean survival time, dose: 25.0 mg/kg/injection, schedule: Q01DX009 (ip), vehicle: Klucel (hydroxypropylcellulose) (HPC)) 95 % of control; (endpoint: mean survival time, dose: 50.0 mg/kg/injection, schedule: Q01DX009 (ip), vehicle: Klucel (hydroxypropylcellulose) (HPC)) 98 % of control; (endpoint: mean survival time, dose: 100.0 mg/kg/injection, schedule: Q01DX009 (ip), vehicle: Klucel (hydroxypropylcellulose) (HPC)) 102 % of control; (endpoint: mean survival time, dose: 200.0 mg/kg/injection, schedule: Q01DX009 (ip), vehicle: Klucel (hydroxypropylcellulose) (HPC)) 112 % of control; (endpoint: mean survival time, dose: 400.0 mg/kg/injection, schedule: Q01DX009 (ip), vehicle: Klucel (hydroxypropylcellulose) (HPC)) 110 % of control.
As for `CCC1=C(C)C(=O)Nc2c3ncnc-3ncn2C1O` (configuration not stated), the T/C reads like this: under setting [7], 104 % of control; under setting [8], 101 % of control; under setting [9], 102 % of control.
In the case of `Cc1cc(=O)oc2cc(O)ccc12`, the T/C was 94 % of control under setting [10]; 98 % of control (endpoint: mean survival time, dose: 200.0 mg/kg/injection, schedule: Q01DX001 (ip), vehicle: saline with Tween-80); 87 % of control (endpoint: mean survival time, dose: 400.0 mg/kg/injection, schedule: Q01DX001 (ip), vehicle: saline with Tween-80).
With `CCCCC/C(C)=N\O`, the T/C is 98 % of control under setting [11]; 104 % of control (endpoint: mean survival time, dose: 100.0 mg/kg/injection, schedule: Q01DX001 (ip), vehicle: saline); 98 % of control under setting [12]; 103 % of control under setting [4]; 95 % of control (endpoint: mean survival time, dose: 200.0 mg/kg/injection, schedule: Q01DX001 (ip), vehicle: saline); 101 % of control under setting [13]. The T/C under setting [5] is 97 % of control and the T/C (endpoint: mean survival time, dose: 400.0 mg/kg/injection, schedule: Q01DX001 (ip), vehicle: saline) is 98 % of control.
In the case of `CC(c1ccccc1)n1cncc1CN1CCOCC1` (configuration not stated), the T/C is, setting by setting: (endpoint: mean survival time, dose: 12.5 mg/kg/injection, schedule: Q04DX002 (ip), vehicle: saline with Tween-80) 91 % of control; (endpoint: mean survival time, dose: 25.0 mg/kg/injection, schedule: Q01DX001 (ip), vehicle: saline with Tween-80) 102 % of control; (endpoint: mean survival time, dose: 25.0 mg/kg/injection, schedule: Q04DX002 (ip), vehicle: saline with Tween-80) 98 % of control; (endpoint: mean survival time, dose: 50.0 mg/kg/injection, schedule: Q01DX001 (ip), vehicle: saline with Tween-80) 102 % of control; (endpoint: mean survival time, dose: 50.0 mg/kg/injection, schedule: Q04DX002 (ip), vehicle: saline with Tween-80) 98 % of control; under setting [10], 95 % of control and 98 % of control. The T/C under setting [1] is 95 % of control.
With `C=C(C)CC#N`, the T/C was 92 % of control under setting [11], 95 % of control under setting [12] and 100 % of control under setting [13].
For the compound `Cc1ccc(OCCOc2ccc([N+](=O)[O-])cc2)cc1`, the T/C runs as follows: (endpoint: mean survival time, dose: 200.0 mg/kg/injection, schedule: Q04DX003 (ip), vehicle: other) 92 % of control; (endpoint: mean survival time, dose: 400.0 mg/kg/injection, schedule: Q04DX003 (ip), vehicle: other) 90 % of control.
In the case of `O=C(OCC(O)C(O)C(O)C(O)COC(=O)c1ccccc1)c1ccccc1` (configuration not stated) (tested in a mixture with another compound), the T/C is 98 % of control under setting [7], 110 % of control under setting [8] and 98 % of control under setting [9].
On to `Nc1c([N+](=O)[O-])ccc2ccccc12`, for which the T/C by setting is: under setting [8], 95 % of control; under setting [4], 93 % of control; under setting [9], 93 % of control; under setting [5], 93 % of control; (endpoint: mean survival time, dose: 400.0 mg/kg/injection, schedule: Q01DX009 (ip), vehicle: saline with Tween-80) 92 % of control; under setting [6], 92 % of control.
Consider `N=c1ccn2c(n1)OC1C(O)C(CO)OC12` (configuration not stated), for which the T/C by setting is: (endpoint: mean survival time, dose: 37.5 mg/kg/injection, schedule: Q01DX005 (ip), vehicle: saline) 151 % of control; (endpoint: mean survival time, dose: 53.0 mg/kg/injection, schedule: Q01DX009 (ip), vehicle: saline) 246 % of control; (endpoint: mean survival time, dose: 75.0 mg/kg/injection, schedule: Q01DX005 (ip), vehicle: saline) 152 % of control and 173 % of control; (endpoint: mean survival time, dose: 79.0 mg/kg/injection, schedule: Q01DX009 (ip), vehicle: saline) 247 % of control; under setting [1], 151 % of control; (endpoint: mean survival time, dose: 119.0 mg/kg/injection, schedule: Q01DX009 (ip), vehicle: saline) 331 % of control. The T/C by setting is: (endpoint: mean survival time, dose: 150.0 mg/kg/injection, schedule: Q01DX005 (ip), vehicle: saline) 160 % of control and 171 % of control; (endpoint: mean survival time, dose: 178.0 mg/kg/injection, schedule: Q01DX009 (ip), vehicle: saline) 341 % of control; under setting [2], 158 % of control; (endpoint: mean survival time, dose: 300.0 mg/kg/injection, schedule: Q01DX005 (ip), vehicle: saline) 205 % of control and 221 % of control; under setting [3], 205 % of control; (endpoint: mean survival time, dose: 600.0 mg/kg/injection, schedule: Q01DX005 (ip), vehicle: saline) 271 % of control and 274 % of control. For the same compound, the T/C (endpoint: median survival time, dose: 200.0 mg/kg/injection, schedule: Q01DX009 (ip), vehicle: water) is 375 % of control; the T/C (endpoint: median survival time, dose: 500.0 mg/kg/injection, schedule: Q01DX009 (ip), vehicle: water) was 93 % of control; the T/C (endpoint: median survival time, dose: 600.0 mg/kg/injection, schedule: Q01DX009 (ip), vehicle: water) is 105 % of control.
With `[Cl][Pt+2][Cl].[NH-]C(Cc1ccc(O)cc1)C(=O)O.[NH-]C(Cc1ccc(O)cc1)C(=O)O` (configuration not stated), the T/C is, setting by setting: (endpoint: mean survival time, dose: 12.5 mg/kg/injection, schedule: Q04DX003 (ip), vehicle: saline with Tween-80) 95 % of control; (endpoint: mean survival time, dose: 50.0 mg/kg/injection, schedule: Q04DX003 (ip), vehicle: saline with Tween-80) 97 % of control; under setting [4], 95 % of control.
